Experimental data reported in US20240409557A1, “5,6-FUSED AND 6,6-FUSED BICYCLIC ALCOHOLS AND ETHERS AND COMPOSITIONS FOR USE AS 15-PROSTAGLANDIN DEHYDROGENASE MODULATORS” (AMGEN INC., priority 2023, published 2024).

How the values were obtained:
[1] = test system: DSS-induced colitis in C57BL/6 female mice; experiment: In vivo mouse DSS study - colon length; conditions: for Colon length Mean: oral gavage, day 10; for Recovery % (vs vehicle) / Reduction % (vs naïve): colon length
Method: In this study, 12-week-old C57BL/6 female mice (Taconic, the Cambridge City) were supplemented with 2.5% DSS (MP Biomedicals, MW 36,000-50,000) in drinking water for days 0-7, and then switched to normal drinking water beginning on day 7 and continued through day 10. Mice were treated once/twice daily by oral gavage with different compounds of Formula (A) (e.g., B15S, B15R, B30R, or B41R) in different dosing levels or with vehicle solution of 2% HPMC, 1% Tween 80 (w/v) in DI water starting on day 0. Mice were sacrificed on day 10 for assessment of colon length. The DSS-induced model of colitis is a widely used animal model for studying the pathogenesis of and potential treatments for UC, which is a primary form of IBD. DSS water intake causes colonic mucosa injury and erosion, gland loss, and infiltration of proinflammatory immune cells in the colon tissue, followed by mucosal repair and tissue remodeling. This is manifested by a shortened colon, the degree of which correlates well with the severity of mucosal injury in this mouse model of DSS-induced experimental colitis.

15-PGDH in A549 cells = target: T1, 15-PGDH in A549 cells (Homo sapiens, UniProt P15428); experiment: A549 cellular 15-PGDH assay (PGE2 accumulation, HTRF); type: cell-based; conditions: interleukin-stimulated, inhibitor 24 hrs, PGE2 by competitive HTRF, read-out: A549 Cell Assay IC50
T1 construct: endogenous in cells; host or cells: A549
T1 sequence (P15428 1-266): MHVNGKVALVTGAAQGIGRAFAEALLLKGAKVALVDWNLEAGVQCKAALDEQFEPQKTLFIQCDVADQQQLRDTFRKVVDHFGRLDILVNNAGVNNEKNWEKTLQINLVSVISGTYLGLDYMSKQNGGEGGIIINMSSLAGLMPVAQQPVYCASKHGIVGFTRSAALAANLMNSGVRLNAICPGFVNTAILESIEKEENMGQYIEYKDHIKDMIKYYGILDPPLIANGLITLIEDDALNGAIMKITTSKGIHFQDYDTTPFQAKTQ
Outline: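 IL-13-stimulated A549 lung carcinoma cells released PGE2, which was measured in supernatants by competitive HTRF with a Eu-cryptate anti-PGE2 antibody and labelled PGE2. Signal falls as PGE2 rises. IC50 values were derived from the binding data.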

[2] = target: T2, human recombinant 15-PGDH (Homo sapiens, UniProt P15428); experiment: Recombinant 15-PGDH enzymatic inhibition assay (PGDH-Lumi, NADH signal); type: biochemical; conditions: for IC50: recombinant 15-PGDH, 15 min pre-incubation, 60 min reaction with PGE2 and NAD+, NADH signal
T2 sequence (P15428 1-266): T1 sequence (P15428 1-266)
Outline: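 Recombinant 15-PGDH pre-incubated 15 min at room temperature with compound (22 concentrations, 2-fold dilutions) in 50 mM Tris pH 7.5, 0.01% Tween-20, […].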

[3] = test system: DSS-induced colitis in C57BL/6 mice; experiment: In vivo mouse DSS study - histopathological analysis of colon; conditions: versus DSS + vehicle
Method: Histopathological analysis was performed on the […] mice from the DSS study described above. Analysis was performed on mice from the B15R, B30R, or B41R groups. Briefly, mouse colon tissues were collected at necropsy, flushed with PBS, manipulated intact into individual modified Swiss rolls, placed into separate tissue cassettes and fixed for approximately 24 hours by immersion in 10% neutral buffered formalin followed by transfer to […]. Fixed tissues were routinely processed, paraffin-embedded, sectioned, mounted on glass slides and hematoxylin and eosin stained. Glass slides were scanned and digital images were accessed for histopathology evaluation. Prior to histopathology assessment, metadata for all digital images reviewed was exported from a digital pathology platform database into an Excel spreadsheet, followed by assignment of each digital image with a random number (greater than 0 and less than 1) using the RAND function in Excel. From smallest to largest random number assigned, each digital image was retrieved for evaluation using only the RTLIMS Inventory Code as the unique identifier for each digital image. Each digital image was individually reviewed without knowledge of treatment group (blinded/masked evaluation), and with the slide label image hidden when viewing digital images. […] Scoring of tissues for DSS-induced colitis was performed using a scoring system and criteria modified and adapted from BolderBioPATH, Inc./Inotiv. Ordinal data (histopathology scores) were analyzed using a non-parametric Kruskal-Wallis one-way analysis of variance test followed by a Dunn's multiple comparison test (GraphPad Prism).
The following scoring systems were used to provide histological scores: […]

SMILES | Colon length Mean ([1]; 10 mpk, QD) | Recovery % (vs vehicle) ([1]; 10 mpk, QD) | Reduction % (vs naïve) ([1]; 10 mpk, QD) | IC50 (15-PGDH in A549 cells) | IC50 [2] | erosion scores ([3]; all doses evaluated) | inflammation scores ([3]; all doses evaluated) | sum of histopathology scores ([3]; all doses evaluated) | Colon length Mean ([1]; 0.625 mpk, BID) | Colon length Mean ([1]; 1.25 mpk, QD) | Colon length Mean ([1]; 2.5 mpk, BID) | Colon length Mean ([1]; 5 mpk, QD) | Recovery % (vs vehicle) ([1]; 0.625 mpk, BID) | Reduction % (vs naïve) ([1]; 0.625 mpk, BID) | Recovery % (vs vehicle) ([1]; 1.25 mpk, QD) | Reduction % (vs naïve) ([1]; 1.25 mpk, QD) | Recovery % (vs vehicle) ([1]; 2.5 mpk, BID) | Reduction % (vs naïve) ([1]; 2.5 mpk, BID) | Recovery % (vs vehicle) ([1]; 5 mpk, QD) | Reduction % (vs naïve) ([1]; 5 mpk, QD) | other results
Cn1nnc2cc(-c3ccc4cc([C@H](O)C5CCOCC5)sc4n3)cnc21 (single isomer, unassigned) [Compound B41R] | 7.9 cm | 82.06% | 3.52% | 2.16 nM | 0.955 nM | decreased severity | decreased severity | decreased severity | – | – | – | – | – | – | – | – | – | – | – | – | colon length comparing to vehicle group ([1]; 2.5 mg/kg and 10 mg/kg daily): significant improvement of colon length; Colon length Mean ([1]; 0.1 mpk, QD): 7.0 cm; Colon length Mean ([1]; 0.25 mpk, QD): 6.8 cm; Colon length Mean ([1]; 0.625 mpk, QD): 7.3 cm; Colon length Mean ([1]; 2.5 mpk, QD): 7.3 cm; Recovery % (vs vehicle) ([1]; 0.1 mpk, QD): 25.46%; Reduction % (vs naïve) ([1]; 0.1 mpk, QD): 14.63%; Recovery % (vs vehicle) ([1]; 0.25 mpk, QD): 11.18%; Reduction % (vs naïve) ([1]; 0.25 mpk, QD): 17.44%; Recovery % (vs vehicle) ([1]; 0.625 mpk, QD): 40.99%; Reduction % (vs naïve) ([1]; 0.625 mpk, QD): 11.59%; Recovery % (vs vehicle) ([1]; 2.5 mpk, QD): 45.34%; Reduction % (vs naïve) ([1]; 2.5 mpk, QD): 10.73%; gland loss scores ([3]; at 0.1 mg/kg QD and >0.625 mg/kg QD): decreased severity
Cn1cc2cc(-c3ccc4cc([C@H](O)C5CCOCC5)sc4n3)cnc2n1 (single isomer, unassigned) [Compound B15R] | – | – | – | 0.561 nM | 0.401 nM | decreased severity | decreased severity | decreased severity | 7.6 cm | 7.84 cm | 8.09 cm | 7.89 cm | 42.29% | 14.97% | 57.64% | 12.28% | 63.43% | 8.09% | 54.80% | 11.72% | colon length comparing to vehicle group ([1]; different doses daily): significant improvement of colon length; gland loss scores ([3]; all doses evaluated): decreased severity
Cn1cc2cc(-c3ccc4cc([C@@H](O)C5CCOCC5)sc4n3)cnc2n1 [Compound B15S, (S)-(6-(2-methyl-2H-pyrazolo[3,4-b]pyridin-5-yl)thieno[2,3-b]pyridin-2-yl)(tetrahydro-2H-pyran-4-yl)methanol] | – | – | – | 0.499 nM | 150 nM | – | – | – | 6.51 cm | 6.60 cm | 6.52 cm | 6.90 cm | 13.4% | 24.8% | 17.0% | 23.7% | 13.7% | 24.7% | 29.0% | 20.3% | colon length comparing to vehicle group ([1]; 5 mg/kg and 20 mg/kg once daily): significant improvement of colon length; Colon length Mean ([1]; 20 mpk, QD): 6.97 cm; Recovery % (vs vehicle) ([1]; 20 mpk, QD): 31.9%; Reduction % (vs naïve) ([1]; 20 mpk, QD): 19.5%; times less potent than B15R in the biochemical assay ([2]; S-enantiomer versus R-enantiomer): around 200
Cn1cc2cc(-c3ccc4cc([C@H](O)C5CC(F)(F)C5)sc4n3)cnc2n1 (single isomer, unassigned) [Compound B30R] | 8.110 cm | 83.228% | 3.616% | 0.233 nM | 0.159 nM | decreased severity | decreased severity | decreased severity | 7.622 cm | 7.733 cm | 7.780 cm | 8.360 cm | 56.343% | 9.413% | 62.467% | 8.093% | 65.039% | 7.538% | 97.008% | 0.645% | Colon length Mean ([1]; 20 mpk, QD): 8.188 cm; Recovery % (vs vehicle) ([1]; 20 mpk, QD): 87.5%; Reduction % (vs naïve) ([1]; 20 mpk, QD): 2.265%; colon length comparing to vehicle group ([1]; different doses daily): significant improvement of colon length; gland loss scores ([3]; at 0.625 mg/kg BID, 1.25 mg/kg QD, 2.5 mg/kg BID and 5 mg/kg QD): decreased severity
